Where two headings read alike, the source gives them in different places.
Test system: HBV rcDNA
Assay: HepDE19 assay with bDNA quantitation of HBV rcDNA
Type: cell-based, hepatitis B virus
Experimental: HepDE19 Assay with bDNA Quantitation of HBV rcDNA:
HepDE19 cell culture system is a HepG2 (human hepatocarcinoma) derived cell line that supports HBV DNA replication and cccDNA formation in a tetracycline (Tet)-regulated manner and produces HBV rcDNA and a detectable reporter molecule dependent on the production and maintenance of cccDNA (Guo, et al., 2007, J. Virol. 81:12472-12484).
HepDE19 (50,000 cells/well) were plated in 96-well collagen-coated tissue-culture treated microtiter plates in DMEM/F12 medium supplemented with 10% fetal bovine serum, 1% penicillin-streptomycin and 1 μg/mL tetracycline and incubated in a humidified incubator at 37° C. and 5% CO2 overnight. Next day, the cells were switched to fresh medium without tetracycline and incubated for 4 hours at 37° C. and 5% CO2. The cells were treated with fresh Tet-free medium with compounds at concentrations starting at 25 μM and a serial, […], 8-point, titration series in duplicate. The final DMSO concentration in the assay was 0.5%. The plates were incubated for 7 days in a humidified incubator at 37° C. and 5% CO2. Following a 7 day-incubation, the level of rcDNA present in the inhibitor-treated wells was measured using a Quantigene 2.0 bDNA assay kit (Affymetrix, Santa Clara, Calif.) with HBV specific custom probe set and manufacturers instructions. Concurrently, the effect of compounds on cell viability was assessed using replicate plates, plated at a density of 5,000 cells/well and incubated for 4 days, to determine the ATP content as a measure of cell viability using the cell-titer glo reagent (CTG; Promega Corporation, Madison, Wis.) as per manufacturer's instructions. The plates were read using a Victor luminescence plate reader (PerkinElmer Model 1420 Multilabel counter) and the relative luminescence units (RLU) data generated from each well was calculated as % inhibition of the untreated control wells and analyzed using XL-Fit module in Microsoft Excel to determine EC50 and EC90 (bDNA) and CC50 (CTG) values using a 4-parameter curve fitting algorithm.

[1] = HepDE19 assay, inhibition of formation of rcDNA, read-out: DE-19bDNA EC50
[2] = read-out: DE-19bDNA EC50, HepDE19 assay, inhibition of formation of relaxed circular DNA (rcDNA), bDNA quantitation
[3] = HepDE19 assay, inhibition of formation of relaxed circular DNA (rcDNA), bDNA quantitation, read-out: DE-19bDNA EC50
[4] = Hepatitis B virus, HepDE19, HepDE19 assay, inhibition of formation of rcDNA, read-out: DE-19bDNA EC50
[5] = Hepatitis B virus, HepDE19, read-out: DE-19bDNA EC50 (μM), HepDE19 assay, inhibition of formation of relaxed circular DNA (rcDNA), bDNA quantitation

## CC(c1cnc(OCc2nc[nH]n2)c2ccccc12)N(CCCO)C(=O)Nc1ccc(F)c(Cl)c1 (single isomer, unassigned) [Compound 259, 1-(1-(1-((1H-1,2,4-Triazol-3-yl)methoxy)isoquinolin-4-yl)ethyl)-3-(3-chloro-4-fluorophenyl)-1-(3-hydroxypropyl)urea]
[1]
  EC50: 2.1 µM

## CC(c1c[nH]c(=O)c2c(F)c(F)ccc12)N(C)C(=O)Nc1cccc(F)c1 (single isomer, unassigned) [Compound 456, 1-(1-(7,8-Difluoro-1-oxo-1,2-dihydroisoquinolin-4-yl)ethyl)-3-(3-fluorophenyl)-1-methylurea]
[2]
  EC50: 0.051 µM

## CC(c1cnc(OCc2ncn(C)n2)c2ccccc12)N(C)C(=O)Nc1ccc(F)c(Cl)c1 (single isomer, unassigned) [Compound 132, 3-(3-Chloro-4-fluorophenyl)-1-methyl-1-(1-(1-((1-methyl-1H-1,2,4-triazol-3-yl)methoxy)isoquinolin-4-yl)ethyl)urea]
[1]
  EC50: 0.06 µM

## CC(c1c[nH]c(=O)c2cc(F)c(F)cc12)N(C)C(=O)Nc1ccccc1F (single isomer, unassigned) [Compound 420, 1-(1-(6,7-Difluoro-1-oxo-1,2-dihydroisoquinolin-4-yl)ethyl)-3-(2-fluorophenyl)-1-methylurea]
[2]
  EC50: 0.74 µM

## CC(c1cn(C)c(=O)c2cc(F)c(F)cc12)N(CCCO)C(=O)Nc1ccc(F)c(Cl)c1 (single isomer, unassigned) [Compound 350, 3-(3-Chloro-4-fluorophenyl)-1-(1-(6,7-difluoro-2-methyl-1-oxo-1,2-dihydroisoquinolin-4-yl)ethyl)-1-(3-hydroxypropyl)urea]
[3]
  EC50: 3.6 µM

## COCCCN(C(=O)Nc1ccc(F)c(Cl)c1)C(C)c1cnc(OC)c2ccccc12 (single isomer, unassigned) [Compound 82, 3-(3-Chloro-4-fluorophenyl)-1-(1-(1-methoxyisoquinolin-4-yl)ethyl)-1-(3-methoxypropyl)urea]
[1]
  EC50: 0.32 µM

## CCCCN(C(=O)Nc1ccc(F)c(Cl)c1)C(C)c1cnc(OC)c2ccccc12 (single isomer, unassigned) [Compound 61, 1-Butyl-3-(3-chloro-4-fluorophenyl)-1-(1-(1-methoxyisoquinolin-4-yl)ethyl)urea]
[1]
  EC50: 0.08 µM

## CC(c1c[nH]c(=O)c2ccc(F)cc12)N(CC(CO)CO)C(=O)Nc1ccc(F)c(Cl)c1 (single isomer, unassigned) [Compound 296, 3-(3-Chloro-4-fluorophenyl)-1-(1-(6-fluoro-1-oxo-1,2-dihydroisoquinolin-4-yl)ethyl)-1-(3-hydroxy-2-(hydroxymethyl)propyl)urea]
[3]
  EC50: 0.04 µM

## CC(C)CN(C(=O)Nc1ccc(F)c(Cl)c1)C(C)c1cnc(-n2cncn2)c2ccccc12 (single isomer, unassigned) [Compound 345, 1-(1-(1-(1H-1,2,4-triazol-1-yl)isoquinolin-4-yl)ethyl)-3-(3-chloro-4-fluorophenyl)-1-isobutylurea]
[3]
  EC50: 0.0095 µM

## C[C@H](c1c[nH]c(=O)c2ccccc12)N(C)C(=O)Nc1ccnc(Cl)c1 [Compound 94, (R)-3-(2-Chloropyridin-4-yl)-1-methyl-1-(1-(1-oxo-1,2-dihydroisoquinolin-4-yl)ethyl)urea]
Hepatitis B virus, HepDE19, read-out: DE-19bDNA EC50 (μM), HepDE19 assay, inhibition of formation of rcDNA
  EC50: 1 µM

## CC(C)CN(C(=O)Nc1ccc(F)cc1)C(C)c1c[nH]c(=O)c2c(F)cc(F)cc12 (single isomer, unassigned) [Compound 376, 1-(1-(6,8-Difluoro-1-oxo-1,2-dihydroisoquinolin-4-yl)ethyl)-3-(4-fluorophenyl)-1-isobutylurea]
[3]
  EC50: 0.007 µM

## CC(c1c[nH]c(=O)c2ccccc12)N(Cc1ccncn1)C(=O)Nc1ccc(F)c(Cl)c1 (single isomer, unassigned) [Compound 322, 3-(3-Chloro-4-fluorophenyl)-1-(1-(1-oxo-1,2-dihydroisoquinolin-4-yl)ethyl)-1-(pyrimidin-4-ylmethyl)urea]
[3]
  EC50: 0.35 µM

## CC(c1cnc(NCCO)c2ccccc12)N(C)C(=O)Nc1ccc(F)c(Cl)c1 (single isomer, unassigned) [Compound 242, 3-(3-Chloro-4-fluorophenyl)-1-(1-(1-((2-hydroxyethyl)amino)isoquinolin-4-yl)ethyl)-1-methylurea]
[1]
  EC50: 0.17 µM

## CC(c1c[nH]c(=O)c2c(F)c(F)ccc12)N(C)C(=O)Nc1ccc2cc[nH]c2c1 (single isomer, unassigned) [Compound 498, 1-(1-(7,8-Difluoro-1-oxo-1,2-dihydroisoquinolin-4-yl)ethyl)-3-(1H-indol-6-yl)-1-methylurea]
[3]
  EC50: 11 µM

## CCC(c1cnc(OC)c2ccccc12)N(CC)C(=O)Nc1ccc(F)c(Cl)c1 (single isomer, unassigned) [Compound 38, 3-(3-Chloro-4-fluorophenyl)-1-ethyl-1-(1-(1-methoxyisoquinolin-4-yl)propyl)urea]
[1]
  EC50: 18 µM

## COCCN(Cc1cnc(OC)c2ccccc12)C(=O)Nc1ccc(F)c(Cl)c1 [Compound 41, 3-(3-Chloro-4-fluorophenyl)-1-(2-methoxyethyl)-1-((1-methoxyisoquinolin-4-yl)methyl)urea]
[4]
  EC50: 3.8 µM

## [2H]C([2H])([2H])N(C(=O)Nc1ccc(F)c(Cl)c1)C(C)c1c[nH]c(=O)c2c(F)c(F)ccc12 (single isomer, unassigned) [Compound 473, 3-(3-Chloro-4-fluorophenyl)-1-(1-(7,8-difluoro-1-oxo-1,2-dihydroisoquinolin-4-yl)ethyl)-1-(methyl-d3)urea]
[5]
  EC50: 0.01 µM

## CC(C)CN(C(=O)Nc1ccc(F)c(Cl)c1)C(C)c1c[nH]c(=O)c2cnccc12 (racemic) [Compound 154, 3-(3-Chloro-4-fluorophenyl)-1-isobutyl-1-(1-(1-oxo-1,2-dihydro-2,7-naphthyridin-4-yl)ethyl)urea]
[4]
  EC50: 0.02 µM

## CCN(C(=O)Nc1ccc(F)c(Cl)c1)C(c1cnc(OC)c2ccccc12)C1CC1 (single isomer, unassigned) [Compound 40, 3-(3-Chloro-4-fluorophenyl)-1-(cyclopropyl(1-methoxyisoquinolin-4-yl)methyl)-1-ethylurea]
[1]
  EC50: 20 µM

## CC(c1c[nH]c(=O)c2cc(F)c(F)cc12)N(C)C(=O)N[C@@H](C)c1ccccc1 (single isomer, unassigned) [Compound 475]
[5]
  EC50: 6.1 µM

## COCCn1cc(C(C)N(C)C(=O)Nc2ccc(F)c(Cl)c2)c2ccccc2c1=O (single isomer, unassigned) [Compound 191, 3-(3-Chloro-4-fluorophenyl)-1-(1-(2-(2-methoxyethyl)-1-oxo-1,2-dihydroisoquinolin-4-yl)ethyl)-1-methylurea]
[4]
  EC50: 0.36 µM

## CN(Cc1cnc(OCc2ccccn2)c2ccccc12)C(=O)Nc1ccc(F)c(Cl)c1 [Compound 88, 3-(3-Chloro-4-fluorophenyl)-1-methyl-1-((1-(pyridin-2-ylmethoxy)isoquinolin-4-yl)methyl)urea]
[4]
  EC50: 1.1 µM

## CCN(C(=O)Nc1ccc(F)c(Cl)c1)C(c1cnc(OC)c2ccccc12)C1CC1 (single isomer, unassigned) [Compound 58, 3-(3-Chloro-4-fluorophenyl)-1-(cyclopropyl(1-methoxyisoquinolin-4-yl)methyl)-1-ethylurea]
[1]
  EC50: 3.5 µM

## CC(c1cnc(N)c2ccccc12)N(C)C(=O)Nc1ccc(F)c(Cl)c1 (single isomer, unassigned) [Compound 238, 1-(1-(1-Aminoisoquinolin-4-yl)ethyl)-3-(3-chloro-4-fluorophenyl)-1-methylurea]
[1]
  EC50: 3.4 µM

## CC(c1cnc(NCc2cn[nH]n2)c2ccccc12)N(C)C(=O)Nc1ccc(F)c(Cl)c1 (single isomer, unassigned) [Compound 261, 1-(1-(1-(((2H-1,2,3-Triazol-4-yl)methyl)amino)isoquinolin-4-yl)ethyl)-3-(3-chloro-4-fluorophenyl)-1-methylurea]
[1]
  EC50: 6.1 µM

## CC(c1c[nH]c(=O)c2c(F)c(F)ccc12)N(C)C(=O)Nc1cccc(F)c1F (single isomer, unassigned) [Compound 458, 1-(1-(7,8-Difluoro-1-oxo-1,2-dihydroisoquinolin-4-yl)ethyl)-3-(2,3-difluorophenyl)-1-methylurea]
[3]
  EC50: 14 µM

## CC(c1c[nH]c(=O)c2c(F)cc(F)cc12)N(CCS(N)(=O)=O)C(=O)Nc1ccc(F)c(Cl)c1 (single isomer, unassigned) [Compound 389, 2-(3-(3-Chloro-4-fluorophenyl)-1-(1-(6,8-difluoro-1-oxo-1,2-dihydroisoquinolin-4-yl)ethyl)ureido) ethane-1-sulfonamide]
[3]
  EC50: 3.3 µM

— patent US20230045421A1 (priority 2018, published 2023)
